Measured values taken from US11179471B2, “Peptide for cytosolic delivery” (priority 2017, dated 2021).
“Also recorded” adds a separate entry of the source. Where two headings read alike, the source gives them in different places. Non-standard residues stand in square brackets, D forms with d. No end group written: not given here. hArg = N=C(N)NCCCC[C@H](N)C(=O)O; Aad = N[C@@H](CCCC(=O)O)C(=O)O

Assays:
[1] = tested on: HeLa cells; experiment: Intracellular release of Alexa 488-labeled human immunoglobulin (IgG, circa 160 kDa); type: cell-based; details: for cells in which intracellular release of human immunoglobulin was observed: α-MEM(−) 1 hour
Procedure: The cells and human immunoglobulin fluorescently labeled with Alexa 488 (IgG, circa 160 kDa) (500 μg/mL) were incubated in the presence of HAad, HA/E2, or L17E (40 μM each) in α-MEM(−) medium for 1 hour in the same manner as in Example 6.
The cells and human immunoglobulin fluorescently labeled with Alexa 488 (IgG, circa 160 kDa) (50 μg/mL: 1/10 the volume of Example 8) were incubated in the presence of HAad or L17E (40 μM each) in α-MEM(−) medium for 1 hour.
In the presence of HAad or L17E (20 μM each: ½ the amount used in Examples 8 and 9), the cells and human immunoglobulin fluorescently labeled with Alexa 488 (IgG, circa 160 kDa) (500 μg/mL: the same amount as in Example 8) were incubated in α-MEM(−) medium for 1 hour. […] (In FIG. 9, the intracellular release achieved by treatment with a low concentration of HAad was 2.5 times the release achieved by L17E. With respect to the peptide concentration required to detect the signal of intracellularly released human immunoglobulin in 35% of the cells, the concentration of L17E is 40 μM, and the concentration of HAad is 20 μM, which is half the concentration of L17E.)

[2] = tested on: HeLa cells; experiment: Release of Alexa 488-dextran (10 kDa) into the cytoplasm, confocal microscopy; type: cell-based
Procedure: Cells; HeLa, peptides; 40 μM, Alexa 488-dextran (10 kDa); 200 μg/mL, treatment; 1 hr in α-MEM(−).
Cells; HeLa, peptides; 40 μM, Alexa 488-dextran (10 kDa); 200 μg/mL, treatment; 1 hr in α-MEM(−). The results are presented as means ±SE (n=3). **; p<0.01 (Student's t-test).
Cells; HeLa, peptides; 40 μM, Alexa 488-dextran (10 kDa); 200 μg/mL, treatment; 1 hr in α-MEM(−). Results are presented as means±SE (n=3). *; p<0.05, **; p<0.01, ***; p<0.001 (one-way ANOVA followed by the Tukey-Kramer honestly significant difference test (post-hoc test)).
(§1) In the presence of each peptide obtained in Example 1 (L17E, L17E/Q21E, HA/E1, HA/E2) (40 μM) or in the absence of the peptides (a control, no peptide), HeLa cells and Alexa 488-dextran (Molecular Probes, 10 kDa) (200 μg/mL) were treated in α-MEM(−) for 1 hour. The cells were washed, and observed with a confocal microscope.
as §1, with “L17Aad)” for “L17E/Q21E, HA/E1, HA/E2)”
as §1, with “(HAad, HA/E2, L17Aad, L17E)” for “(L17E, L17E/Q21E, HA/E1, HA/E2)”
When HeLa cells were incubated with Alexa 488-dextran (10 kDa) (200 μg/mL) as a macromolecular drug model in the presence of HAad (40 μM) in α-MEM(−) for 1 hour, Alexa 488-dextran release into about 75% of cells (cytosol) was observed. In contrast, when the incubation was performed in the presence of L17E, Alexa 488-dextran release into about 50% of the cells was observed.
HeLa cells, Alexa 488-dextran (Molecular Probes, 10 kDa) (200 μg/mL), and HAad; or HeLa cells, Alexa 488-dextran, (Molecular Probes, 10 kDa) (200 μg/mL), and HAad-homoR (20 μM) were treated in α-MEM(−) for 1 hour. The cells were washed, and observed with a confocal microscope.

[3] = tested on: NIH3T3 cells; experiment: Intracellular release of dextran (10 kDa) in NIH3T3 cells; type: cell-based; details: peptide 40 μM, dextran (10 kDa), DEME(−) medium 1 hour
Procedure: Intracellular release of dextran is more difficult in NIH3T3 cells than in HeLa cells. NIH3T3 cells and dextran (10 kDa) were incubated in the presence of HAad, HA/E2, or L17E (40 μM each) in DEME(−) medium for 1 hour in the same manner as in Example 6.

[4] = tested on: mitochondrial membrane of HeLa cells
Text: Mitochondrial membranes are considered to be rich in acidic lipid, as compared with cell membranes. Accordingly, the effects of the above peptides on a mitochondrial membrane were examined by JC-1 assay. A JC-1 reagent emits red (J-aggregate) fluorescence when the mitochondrial membrane is kept normal and the membrane potential is maintained; and the JC-1 reagent emits green (J-monomer) fluorescence when the mitochondrial membrane is damaged and the membrane potential is not kept normal. After HeLa cells were incubated with HAad, HA/E2, or L17E (40 μM) in α-MEM(−) for 1 hour, JC-1 assay was performed. The percentage of cells that emitted red fluorescence was assayed by flow cytometry.

[5] = tested on: HeLa cells transfected with a plasmid encoding loxP-DsRed-loxP-EGFP; experiment: Genetic recombination assay by intracellular delivery of Cre protein (EGFP expression); type: cell-based; details: for proportion of GFP-expressing cells: Cre-His6 10 μM, peptide 40 μM, 1 hour, then 24 hours in α-MEM(+); for increase of genetic recombination as compared with no peptide administration: EGFP expression with no release peptide was 9%
Procedure: HeLa cells transfected with a plasmid encoding loxP-DsRed-loxP-EGFP, which were prepared in the same manner as in the Examples of PTL 2, were incubated with His-tag fusion Cre (Cre-Hiss) (10 μM) in the presence of HAad, HA/E2, or L17E (40 μM each) for 1 hour. This system was designed to express EGFP when intracellular release of Cre protein induces genetic recombination. […] The proportions of GFP-expressing cells in the cells treated with HAad, HA/E2, and L17E were 41%, 36%, and 30%, respectively. Considering the fact that the EGFP expression efficiency achieved with no administration of a release peptide was 9%, peptide administration of HAad, HA/E2, and L17E can be considered to increase genetic recombination by 32%, 27%, and […], respectively, as compared with no peptide administration.

[6] = tested on: cells; experiment: Cell viability 24 hours after peptide treatment in the presence of serum (WST-8); type: cell-based; details: 10-40 μM; α-MEM(+) 24 hours
Procedure: (§2) After the cells were incubated in the presence of HAad, HA/E2, or L17E (each 10 μM, 20 μM, and 40 μM) in α-MEM(+) medium for 24 hours, the cell viability (%) was evaluated by WST-8 assay (FIG. 14). The cell viability (%) after 24 hours with the use of any peptide at any concentration was almost 100%.

[7] = as above; type: cell-based; details: cells (cell line not given); peptide 10 μM, 20 μM and 40 μM; α-MEM(+) 24 hours; WST-8
Procedure: as §2

[8] = Helix content from CD spectra in the presence of POPC/POPG (3:1) liposomes; type: physicochemical; details: result in words (FIG. 1)
Procedure: The helix content was calculated by the method of Y. H. Chen et al., 1972, based on 222-nm molar ellipticity ([…]) using the following formula: Helicity (%)=−([θ]222+2340)/30300*100.
The helix content of the peptides obtained in Example 1 (L17E, L17E/Q21E, L17Aad, HA/E1, HA/E2, and HAad) was calculated in the presence of POPC/POPG (3:1) liposomes by the method of Y. H. Chen et al., 1972, based on 222-nm molar ellipticity ([θ]222) using the following formula: Helix content (%)=−([θ]222+2340)/30300*100. Further, the CD spectra of the peptides were measured.

[9] = tested on: HeLa cells; experiment: Release of Alexa 488-dextran (10 kDa) into the cytoplasm, confocal microscopy; type: cell-based; details: Alexa 488-dextran (10 kDa) 200 μg/mL, 1 hour, read-out: peptide concentration required to detect the signal of intracellularly released Alexa 488-dextran in 50% of the cells
[10] = tested on: HeLa cells; experiment: Nuclear accumulation of NLS-EGFP; type: cell-based; details: NLS-EGFP 10 μM; peptide 40 μM; α-MEM(−) 1 hour
Procedure: The cells and NLS-EGFP (10 μM) were incubated in the presence of HAad or L17E (40 μM each) in α-MEM(−) medium for 1 hour in the same manner as in Example 6. If NLS-EGFP is intracellularly released while maintaining its activity, localization of green fluorescence in the nuclei is observed. […] A high activity of HAad to release endosome-encapsulated substances was also confirmed in this system.

[11] = HeLa, 40 μM, 1 hour in α-MEM(−), Lipofectamine LTX/pCI complex overnight in α-MEM(+)

Compound | cells in which intracellular release of human immunoglobulin was observed ([1]; peptide 40 μM, IgG 500 μg/mL) | endosome-encapsulated substance (Alexa 488-dextran) releasing activity, in words ([2]; peptide 40 μM, Alexa 488-dextran 200 μg/mL, 1 hr, compared with L17E) | cells in which intracellular release of dextran was observed [3] | effect on mitochondrial membrane (cells emitting red JC-1 fluorescence), in words [4, 11] | proportion of GFP-expressing cells [5] | increase of genetic recombination as compared with no peptide administration [5] | toxicity, in words [6] | viability at 24 h [7] | helicity in the presence of an acidic lipid membrane [8] | effect on mitochondrial membrane (cells emitting red JC-1 fluorescence), in words [4] | cells in which release of Alexa 488-dextran into the cytoplasm was observed ([2]; peptide 20 μM, Alexa 488-dextran (10 kDa) 200 μg/mL, 1 hour in α-MEM(−)) | peptide concentration required to detect the signal of intracellularly released human immunoglobulin in 35% of the cells ([1]; IgG 500 μg/mL, 1 hour) | cells in which intracellular release of human immunoglobulin was observed ([1]; peptide 20 μM, IgG 500 μg/mL) | cells in which intracellular release of human immunoglobulin was observed ([1]; peptide 40 μM, IgG 50 μg/mL) | EC50 [9] | cells in which Alexa 488-dextran release into the cytosol was observed ([2]; peptide 40 μM, Alexa 488-dextran (10 kDa) 200 μg/mL, 1 hour in α-MEM(−)) | cells in which localization of NLS-EGFP in the nuclei was observed [10]
H-IWLTALKFLGKAAAKAEAKQELSKL-NH2 [HA/E2, IWLTALX^5FLGX^6AAAX^7AEAX^8QELSX^9L-amide] | ~45% | higher endosomal content release activity than L17E; also recorded: Significant outflow; also recorded: equivalent to that of HA/E1; also recorded: significantly higher endosome-encapsulated substance releasing activity than L17E | ~25% | no significant difference from the untreated case | 36% | 27% | no significant toxicity | ~100% | high helicity | – | – | – | – | – | – | – | –
N#CC(C#N)=NNc1ccc(OC(F)(F)F)cc1 [FCCP, carbonyl cyanide-p-trifluoromethoxyphenylhydrazone, reference compound] | – | – | – | – | – | – | – | – | – | changed to emit green fluorescence | – | – | – | – | – | – | –
H-IWLTALZFLGZAAAZAXAZQXLSZL-amide (H-IWLTAL[hArg]FLG[hArg]AAA[hArg]A[Aad]A[hArg]Q[Aad]LS[hArg]L-NH2; SMILES CC[C@H](C)[C@H](N)C(=O)N[C@@H](Cc1c[nH]c2ccccc12)C(=O)N[C@@H](CC(C)C)C(=O)N[C@H](C(=O)N[C@@H](C)C(=O)N[C@@H](CC(C)C)C(=O)N[C@@H](CCCCNC(=N)N)C(=O)N[C@@H](Cc1ccccc1)C(=O)N[C@@H](CC(C)C)C(=O)NCC(=O)N[C@@H](CCCCNC(=N)N)C(=O)N[C@@H](C)C(=O)N[C@@H](C)C(=O)N[C@@H](C)C(=O)N[C@@H](CCCCNC(=N)N)C(=O)N[C@@H](C)C(=O)N[C@@H](CCCC(=O)O)C(=O)N[C@@H](C)C(=O)N[C@@H](CCCCNC(=N)N)C(=O)N[C@@H](CCC(N)=O)C(=O)N[C@@H](CCCC(=O)O)C(=O)N[C@@H](CC(C)C)C(=O)N[C@@H](CO)C(=O)N[C@@H](CCCCNC(=N)N)C(=O)N[C@@H](CC(C)C)C(N)=O)[C@@H](C)O; listed as Lycosa carolinensis) [HAad-homoR] | – | – | – | – | – | – | – | – | – | – | 75% | – | – | – | – | – | –
IWLTALKFLGKHAAKHEAKQQLSKL-NH2 [L17E, IWLTALX^5FLGX^6HAAX^7HEAX^8QQLSX^9L-amide, reference compound] | ~35% | – | ~17% | decreased slightly | 30% | 22% | no significant toxicity | ~100% | – | – | – | 40 µM | about 15% | about 10% | 40 µM | about 50% | ~56%
